One experiment relates to NCI-H460. The experiment in a line: Antiproliferative activity against human NCI-H460 cells at 10'5 M. The class given is functional.
The next experiment has as its system Malme-3M. In words: Antiproliferative activity against human MALME-3M cells at 10'5 M. The class given is functional.
The subject of a further experiment is IGROV-1. The experiment in a line: Antiproliferative activity against human IGROV1 cells at 10'5 M. It counts as functional.
The test system of another experiment is SNB-75. The experiment in a line: Antiproliferative activity against human SNB75 cells at 10'5 M. The class given is functional.
The test system of a further experiment is TK-10. The experiment in a line: Antiproliferative activity against human TK10 cells at 10'5 M. It counts as functional.
The next experiment deals with MCF7. The experiment in a line: Antiproliferative activity against human MCF7 cells at 10'5 M. It counts as functional.
A further experiment deals with K562. In words: Antiproliferative activity against human K562 cells at 10'5 M. It counts as functional.
The test system of another experiment is PC-3. The experiment in a line: Antiproliferative activity against human PC3 cells at 10'5 M. It counts as functional.
A further experiment has as its system SR. The experiment in a line: Antiproliferative activity against human SR cells at 10'5 M. The class given is functional.
Another experiment deals with OVCAR-4. In words: Antiproliferative activity against human OVCAR4 cells at 10'5 M. The class given is functional.
For the next experiment, the system named is NCI/ADR-RES. The experiment in a line: Antiproliferative activity against human NCI-ADR-RES cells at 10'5 M. The class given is functional.
The subject of the next experiment is SK-OV-3. The experiment in a line: Antiproliferative activity against human SKOV3 cells at 10'5 M. It counts as functional.
The test system of the next experiment is HCC 2998. In words: Antiproliferative activity against human HCC2998 cells at 10'5 M. It counts as functional.
The next experiment relates to RPMI-8226. In words: (§1) Antiproliferative activity against human RPMI8226 cells at 10'5 M. The class given is functional.
Another experiment relates to MOLT-4. The experiment in a line: Antiproliferative activity against human MOLT4 cells at 10'5 M. It counts as functional.
The subject of another experiment is Hs-578T. The experiment in a line: Antiproliferative activity against human Hs 578T cells at 10'5 M. It counts as functional.
Another experiment deals with DU-145. The experiment in a line: Antiproliferative activity against human DU145 cells at 10'5 M. The class given is functional.
The subject of the next experiment is CCRF-CEM. In words: Antiproliferative activity against human CCRF-CEM cells at 10'5 M. The class given is functional.
In another experiment the test system is HCT-116. The experiment in a line: (§2) Antiproliferative activity against human HCT116 cells at 10'5 M. It counts as functional.
A short description of experiment [1]: as §1. It counts as functional, RPMI-8226.
Experiment [2] in a line: as §2. It counts as functional, HCT-116.

The structures appear in SMILES notation. The source made the active and inactive calls. No cut-off for these calls is given here.

In the case of `O=C(/C=C/c1ccccc1)n1c(-c2ccccc2O)nc2ccccc21`, the result with NCI-H460, in the experiment with Malme-3M, with IGROV-1, with SNB-75, with TK-10 and in the experiment with MCF7 was inactive. In addition, the result with K562, in the experiment on PC-3, with SR, in the experiment on OVCAR-4, in the experiment with NCI/ADR-RES and with SK-OV-3 was inactive. Also, the result in the experiment with HCC 2998, with RPMI-8226, with MOLT-4, in the experiment on Hs-578T, in the experiment with DU-145 and in the experiment with CCRF-CEM was inactive. Moreover, the result in the experiment on HCT-116 was inactive.
Take `Cc1ccc2ncn(C(=O)/C=C/c3ccccc3)c2c1`: the result with NCI-H460, in the experiment on Malme-3M, with IGROV-1, in the experiment on SNB-75, with TK-10 and with MCF7 was inactive. Moreover, the result in the experiment with K562, in the experiment with PC-3, with SR, with OVCAR-4, in the experiment on NCI/ADR-RES and in the experiment on SK-OV-3 was inactive. The result with HCC 2998, in the experiment on RPMI-8226, in the experiment with MOLT-4, in the experiment with Hs-578T, in the experiment on DU-145 and in the experiment with CCRF-CEM was inactive. Besides, the outcome in the experiment on HCT-116 was inactive.
`O=C(/C=C/c1ccccc1)n1c(-c2ccccc2)nc2ccccc21`: the result in the experiment with NCI-H460, in the experiment with Malme-3M, in the experiment on IGROV-1, in the experiment with SNB-75, in the experiment on TK-10 and in the experiment on MCF7 was inactive. In addition, the result in the experiment with K562, in the experiment on PC-3, in the experiment with SR, in the experiment on OVCAR-4, with NCI/ADR-RES and with SK-OV-3 was inactive. In addition, the outcome in the experiment with HCC 2998, in the experiment with RPMI-8226, with MOLT-4, in the experiment on Hs-578T, with DU-145 and in the experiment with CCRF-CEM was inactive. In addition, the outcome in the experiment with HCT-116 was inactive.
Take `COc1ccc(-c2nc3ccccc3n2C(=O)/C=C/c2ccccc2)cc1`: the result in the experiment on NCI-H460, in the experiment on Malme-3M, in the experiment with IGROV-1, with SNB-75, with TK-10 and in the experiment with MCF7 was inactive. Further, the result in the experiment with K562, with PC-3, with SR, in the experiment on OVCAR-4, in the experiment with NCI/ADR-RES and with SK-OV-3 was inactive. The outcome in the experiment with HCC 2998, in the experiment on RPMI-8226, with MOLT-4, in the experiment on Hs-578T, in the experiment on DU-145 and in the experiment with CCRF-CEM was inactive. In addition, the outcome in the experiment with HCT-116 was inactive.
On to `O=C(/C=C/c1ccccc1)n1c(-c2ccc(O)cc2)nc2ccccc21`, for which the result in the experiment on NCI-H460, in the experiment with Malme-3M, in the experiment with IGROV-1, in the experiment with SNB-75, with TK-10 and in the experiment on MCF7 was inactive. Besides, the outcome with K562, with PC-3, in the experiment with SR, in the experiment with OVCAR-4, in the experiment on NCI/ADR-RES and with SK-OV-3 was inactive. The result with HCC 2998, with RPMI-8226, with MOLT-4, in the experiment with Hs-578T, in the experiment on DU-145 and in the experiment with CCRF-CEM was inactive. Further, the result with HCT-116 was inactive.
In the case of `Cc1ccc2nc[nH]c2c1`, the “growth inhibition (GI)” value in the experiment with MCF7 was determined as 73.43%; with SR, 84.7%; in experiment [1], 88.17%; in the experiment on CCRF-CEM it was 60.81%; in experiment [2], 64.84%.
For the molecule `Cc1cc2nc[nH]c2cc1C` [DIMEDAZOL], the “growth inhibition (GI)” value with MCF7 is 69.59%; in the experiment with SR it was 64.66%; in [1], 63.61%; in the experiment on CCRF-CEM it was 64.66%.
Turning to `Cc1cc2ncn(C(=O)/C=C/c3ccccc3)c2cc1C`, the outcome in the experiment with NCI-H460, with Malme-3M, in the experiment on IGROV-1, in the experiment on SNB-75, with TK-10 and in the experiment on MCF7 was inactive. Also, the result in the experiment on K562, with PC-3, with SR, in the experiment on OVCAR-4, in the experiment on NCI/ADR-RES and with SK-OV-3 was inactive. Besides, the outcome in the experiment on HCC 2998, in the experiment on RPMI-8226, in the experiment on MOLT-4, with Hs-578T, with DU-145 and in the experiment on CCRF-CEM was inactive. In the experiment on HCT-116, the result was inactive.
As to `Cc1nc2ccccc2n1C(=O)/C=C/c1ccccc1`, the outcome with NCI-H460, with Malme-3M, in the experiment with IGROV-1, in the experiment with SNB-75, in the experiment with TK-10 and with MCF7 was inactive. The result with K562, in the experiment with PC-3, in the experiment with SR, with OVCAR-4, with NCI/ADR-RES and with SK-OV-3 was inactive. Besides, the outcome in the experiment with HCC 2998, in the experiment on RPMI-8226, with MOLT-4, in the experiment on Hs-578T, in the experiment on DU-145 and with CCRF-CEM was inactive. Moreover, the result with HCT-116 was inactive.
